The experiment has as its system TCR transgenic OTI cells. The experiment in a line: External loading of MHC Class I-restricted epitopes onto itDCs, read out as Phospho-Zap-70 in OTI cells. Particulars: dendritic cells externally loaded on ice for 30 minutes; mixed with OTI cells for 30 min at 37 C; pZap70 staining. The experiment is classed as cell-based. As for the experimental part:
Dendritic cells were externally loaded on ice for 30 minutes with MHC Class I-restricted peptides from Ovalbumin recognized by TCR transgenic OTI cells. DC were washed and mixed with OTI cells for 30 min in complete media at 37 C, 5% CO2. Cells were stained with conjugated antibodies specifically recognizing TCR. After fixation and permeabilization with paraformaldehyde and methanol, cells were labelled with monoclonal antibodies specific for the phosphorylated (activated) form of the Zeta-chain-associated protein kinase 70 (Phospho-Zap-70). Expression of pZap70 is directly proportional to the amount of stimulatory signal delivered through the TCR to T cells.

As to “SINFEKL [MHC Class I-restricted peptide from Ovalbumin recognized by TCR transgenic OTI cells]”, the “loading of a MHC Class I-restricted epitope onto itDCs” value is listed as “successful loading”.

(Values after US20130058977A1, “COMPOSITIONS AND METHODS RELATED TO INDUCED TOLEROGENIC DENDRITIC CELLS EXTERNALLY LOADED WITH MHC CLASS I-RESTRICTED EPITOPES” (Selecta Biosciences, Inc., priority 2011, published 2013).)
